Experimental data taken from the OligoGym collection.
After the bases stand the sugars from the 5' end (letter, count) and the backbone: PS all phosphorothioate, else s phosphorothioate and o phosphodiester by linkage. Methylation of C is not given here. e = 2'-O-(2-methoxyethyl) (MOE); k = constrained ethyl (cEt); d = 2'-deoxy (DNA)

Molecular target: APOL1
Conditions: ASO

Sequence: GTTCTAACTCTTGGGC (sugars kkddddekekeddddd, PS)
- target mRNA inhibition (A431, 2 µM): 78%

Sequence: CTTTATACCAGTGTCT (sugars kkddddekekeddddd, PS)
- target mRNA inhibition (A431, 0.0156 µM): 29%
- target mRNA inhibition (A431, 0.04 µM): 50%
- target mRNA inhibition (A431, 0.0625 µM): 60%
- target mRNA inhibition (A431, 0.25 µM): 82%
- target mRNA inhibition (A431, 1 µM): 95%
- target mRNA inhibition (A431, 2 µM): 98%

Sequence: TCATTTGCTAGGTGCC (sugars k4 d9 k3, PS)
- target mRNA inhibition (A431, 0.0625 µM): 43%
- target mRNA inhibition (A431, 0.25 µM): 72%
- target mRNA inhibition (A431, 1 µM): 85%

Sequence: TATATTTGATCCTCAA (sugars kkddddkekekkdddd, PS)
- target mRNA inhibition (A431, 2 µM): 77%

Sequence: ACGCAATGCTGACTTG (sugars k3 d4 k3 e1 d5, PS)
- target mRNA inhibition (A431, 2 µM): 88%

Sequence: CTTTATACCAGTGTCT (sugars kkdddddkekeddddd, PS)
- target mRNA inhibition (A431, 0.0156 µM): 14%
- target mRNA inhibition (A431, 0.0625 µM): 41%
- target mRNA inhibition (A431, 0.25 µM): 74%
- target mRNA inhibition (A431, 1 µM): 92%
- target mRNA inhibition (A431, 2 µM): 97%

Sequence: CGCAATGCTGACTTGG (sugars kkddddkekekddddd, PS)
- target mRNA inhibition (A431, 2 µM): 83%

Sequence: TGTAAGTGCAACCAAT (sugars k4 d9 k3, PS)
- target mRNA inhibition (A431, 0.0625 µM): 19%
- target mRNA inhibition (A431, 0.25 µM): 46%
- target mRNA inhibition (A431, 1 µM): 78%

Sequence: AAGTATTGCCAGCTAA (sugars kkdddddkekeddddd, PS)
- target mRNA inhibition (A431, 2 µM): 73%

Sequence: TTGTAAGTGCAACCAA (sugars kkddddkekekddddd, PS)
- target mRNA inhibition (A431, 2 µM): 69%

Sequence: AAGTGCAACCAATCAA (sugars k4 d9 k3, PS)
- target mRNA inhibition (A431, 0.0625 µM): 36%
- target mRNA inhibition (A431, 0.25 µM): 63%
- target mRNA inhibition (A431, 1 µM): 83%

Sequence: GCTTTAAACTCAGGTG (sugars kekddddeekkddddd, PS)
- target mRNA inhibition (A431, 2 µM): 93%

Sequence: GTTATGAAATTATTGG (sugars kekddddeekkddddd, PS)
- target mRNA inhibition (A431, 0.0156 µM): 14%
- target mRNA inhibition (A431, 0.0625 µM): 43%
- target mRNA inhibition (A431, 0.25 µM): 64%
- target mRNA inhibition (A431, 1 µM): 84%
- target mRNA inhibition (A431, 2 µM): 90%

Sequence: CTAATTTTCTGACTGT (sugars k2 d4 e4 k2 d4, PS)
- target mRNA inhibition (A431, 2 µM): 88%

Sequence: GTGAGTATTGTTTTTG (sugars kkkddddkekekdddd, PS)
- target mRNA inhibition (A431, 2 µM): 85%

Sequence: GAAGCTTTAAACTCAG (sugars k2 d4 e3 k2 d5, PS)
- target mRNA inhibition (A431, 2 µM): 72%

Sequence: AGGTTGTCCAGAGCTT (sugars k4 d9 k3, PS)
- target mRNA inhibition (A431, 0.0625 µM): 51%
- target mRNA inhibition (A431, 0.25 µM): 60%
- target mRNA inhibition (A431, 1 µM): 69%

Sequence: TTCTTGATGTGGTGGG (sugars k4 d9 k3, PS)
- target mRNA inhibition (A431, 0.0625 µM): 58%
- target mRNA inhibition (A431, 0.25 µM): 82%
- target mRNA inhibition (A431, 1 µM): 91%

Sequence: ATCAGATGGGTACTTC (sugars kkkddddkdkdkdddd, PS)
- target mRNA inhibition (A431, 2 µM): 79%

Sequence: TTATGAAATTATTGGT (sugars kkddddekekeddddd, PS)
- target mRNA inhibition (A431, 2 µM): 74%

Sequence: ATCAGATGGGTACTTC (sugars kkkddddkekeddddd, PS)
- target mRNA inhibition (A431, 2 µM): 85%

Sequence: TGTTCTAACTCTTGGG (sugars k2 d4 e3 k2 d5, PS)
- target mRNA inhibition (A431, 0.0156 µM): 24%
- target mRNA inhibition (A431, 0.0625 µM): 61%
- target mRNA inhibition (A431, 0.25 µM): 84%
- target mRNA inhibition (A431, 1 µM): 93%
- target mRNA inhibition (A431, 2 µM): 97%

Sequence: ACACATCATTGGGTTA (sugars kkkddddkekekdddd, PS)
- target mRNA inhibition (A431, 2 µM): 32%

Sequence: TGTTCTAACTCTTGGG (sugars kkkddddkekeddddd, PS)
- target mRNA inhibition (A431, 2 µM): 88%

Sequence: GTTCTAACTCTTGGGC (sugars k2 d4 e3 k2 d5, PS)
- target mRNA inhibition (A431, 0.0156 µM): 20%
- target mRNA inhibition (A431, 0.0625 µM): 35%
- target mRNA inhibition (A431, 0.25 µM): 65%
- target mRNA inhibition (A431, 1 µM): 85%
- target mRNA inhibition (A431, 2 µM): 91%

Sequence: TTCTATTAGAGGGCTA (sugars k2 d4 e3 k2 d5, PS)
- target mRNA inhibition (A431, 2 µM): 87%

Sequence: GTTTTGTAAGTGCAAC (sugars kkkddddkekekdddd, PS)
- target mRNA inhibition (A431, 2 µM): 59%

Sequence: CAGTACAGAGCAGGAT (sugars k4 d9 k3, PS)
- target mRNA inhibition (A431, 0.0625 µM): 59%
- target mRNA inhibition (A431, 0.25 µM): 82%
- target mRNA inhibition (A431, 1 µM): 94%

Sequence: AGTATTGCCAGCTAAG (sugars kkddddkekekddddd, PS)
- target mRNA inhibition (A431, 2 µM): 65%

Sequence: CTAATTTTCTGACTGT (sugars kkdddddkekeddddd, PS)
- target mRNA inhibition (A431, 0.0156 µM): 27%
- target mRNA inhibition (A431, 0.0625 µM): 56%
- target mRNA inhibition (A431, 0.25 µM): 80%
- target mRNA inhibition (A431, 1 µM): 93%
- target mRNA inhibition (A431, 2 µM): 98%

Sequence: TGTTATATTTGATCCT (sugars kkddddkekekddddd, PS)
- target mRNA inhibition (A431, 2 µM): 81%

Sequence: CAGTTTTGTAAGTGCA (sugars kkdddddkekeddddd, PS)
- target mRNA inhibition (A431, 0.0156 µM): 25%
- target mRNA inhibition (A431, 0.0625 µM): 53%
- target mRNA inhibition (A431, 0.25 µM): 84%
- target mRNA inhibition (A431, 1 µM): 89%
- target mRNA inhibition (A431, 2 µM): 94%

Sequence: AGTATTGTTTTTGTGG (sugars kkddddkekekkdddd, PS)
- target mRNA inhibition (A431, 2 µM): 66%

Sequence: TTATATTTGATCCTCA (sugars kkkddddkekekdddd, PS)
- target mRNA inhibition (A431, 2 µM): 92%
